Where two headings read alike, the source gives them in different places.
Key:
[1] = oral; cited from earlier work
[2] = system: Female CD-1 mice treated with 3-nitropropionic acid (3-NP); assay: Protective effects in 3-NP mouse model of mitochondrial dysfunction (survival, weight loss); type: in vivo; details: for Survival at d 8: 3-NP 65 mg/Kg ip daily, survivors/10 mice
Description: A combination of uridine triacetate and ketoleucine was assessed in a model of progressive and lethal impairment of mitochondrial oxidative phosphorylation. 3-nitropropionic acid (3-NP), an irreversible inhibitor of Complex II of the mitochondrial electron transport chain. Daily administration of 3-NP results in progressive loss of mitochondrial reserve energy capacity, until the threshold for baseline energy requirements for survival is breached, resulting in mortality from both heart failure and central nervous system dysfunction.
In this study, uridine triacetate was administered as either by gavage as an oral bolus, or by incorporation into rodent chow at a concentration of 4% w/w. Similarly, ketoleucine (in the form of its sodium salt; NaKL) was administered in different groups by gavage or by dissolving it in drinking water. Sodium chloride (NaCl) was used as a control substance in some groups to account for the sodium load from the ketoleucine salt. • Chemical(s): Hydroxypropyl methyl cellulose (HPMC), cat #H3785, Lot #SLBS5701, CAS 9004-65-3, SIGMA-Aldrich. Uridine Triacetate for gavage (UTA), item, D000156, Lot #Q000001095, Almac Sciences, Uridine Triacetate in the diet (UTA), item & Lot #, D000302, 2148-070, Project #1314A0071A, recovery of material from R-104 Lot Q000003578, Almac Sciences, Sodium Chloride (NaCl), VWR, Cat #BDH9286-500G, Lot #1976C500, CAS 7647-14-5, 4-methyl-2-oxovaleric acid sodium salt (ketoLeucine: NaKL), cat #M326425, Lot #1-AWT-36-1, CAS4502-00-5, Toronto Research Chemicals, and 3-nitropropionic acid (3NP), cat #N5636, Lot #11101616, CAS 504-88-1, SIGMA-Aldrich. • Vehicle(s): UTA, NaKL, or NaCl in suspensions was prepared in 0.75% HPMC. NaCL or NaKL in the drinking water were prepared by dissolving in water. 3-NP solutions were prepared in water. • Dosing Formulation(s): Preparation: UTA was suspended in 0.75% HPMC at 50 mg/ml. NaKL will be suspended in 0.75% HPMC at 100 mg/ml, or included in the drinking water at 15.8 mg/ml. […]

[3] = oral, mice; cited from earlier work
[4] = oral, humans; cited from earlier work

Structure (SMILES)	bioavailability [1]	Survival at d 8 ([2]; Group 1: 4% UTA diet, NaCl in drinking water, no gavage)	Survival at d 8 ([2]; Group 3: normal chow, regular water, UTA 1000 mg/Kg and NaCl by gavage 7 AM and 4 PM)	Protection against weight loss, comparison between groups ([2]; bolus (gavage) uridine triacetate with or without NaKL (Groups 3-5) versus 4% (w/w) uridine triacetate in chow (Groups 1 and 2))	bioavailability [3]	bioavailability [4]
CC(=O)OC[C@H]1O[C@@H](n2ccc(=O)[nH]c2=O)[C@H](OC(C)=O)[C@@H]1OC(C)=O [UTA, 2′,3′,5,-tri-O-acetyluridine]	approximately 50%	0/10	1/10	better protection against weight loss		
O=c1ccn([C@@H]2O[C@H](CO)[C@@H](O)[C@H]2O)c(=O)[nH]1 [uridine]					approximately 7%	approximately 7%

Source: patent publication US12703718B2, “Compositions and compounds for co-delivery of uridine and ketoleucine” (PHARMA CINQ, LLC, priority 2021, dated 2026)
